Assay results taken from paper PMC5762315, “Inhibition of polo-like kinase 4 (PLK4): a new therapeutic option for rhabdoid tumors and pediatric medulloblastoma” (Oncotarget, 2017).
Several values for one entry are separate records, joined by “and”; a condition that tells them apart may be missing. Equal entries are not always repeated.

Legend:
Assay in all cases: biochemical
Assay type in all cases: biochemical
various kinases [1] = biological target: various kinases (Homo sapiens, UniProt P00519, F317I); conditions: ABL1 F317I
various kinases (Homo sapiens, UniProt P00519, F317I), sequence (P00519 whole entry F317I): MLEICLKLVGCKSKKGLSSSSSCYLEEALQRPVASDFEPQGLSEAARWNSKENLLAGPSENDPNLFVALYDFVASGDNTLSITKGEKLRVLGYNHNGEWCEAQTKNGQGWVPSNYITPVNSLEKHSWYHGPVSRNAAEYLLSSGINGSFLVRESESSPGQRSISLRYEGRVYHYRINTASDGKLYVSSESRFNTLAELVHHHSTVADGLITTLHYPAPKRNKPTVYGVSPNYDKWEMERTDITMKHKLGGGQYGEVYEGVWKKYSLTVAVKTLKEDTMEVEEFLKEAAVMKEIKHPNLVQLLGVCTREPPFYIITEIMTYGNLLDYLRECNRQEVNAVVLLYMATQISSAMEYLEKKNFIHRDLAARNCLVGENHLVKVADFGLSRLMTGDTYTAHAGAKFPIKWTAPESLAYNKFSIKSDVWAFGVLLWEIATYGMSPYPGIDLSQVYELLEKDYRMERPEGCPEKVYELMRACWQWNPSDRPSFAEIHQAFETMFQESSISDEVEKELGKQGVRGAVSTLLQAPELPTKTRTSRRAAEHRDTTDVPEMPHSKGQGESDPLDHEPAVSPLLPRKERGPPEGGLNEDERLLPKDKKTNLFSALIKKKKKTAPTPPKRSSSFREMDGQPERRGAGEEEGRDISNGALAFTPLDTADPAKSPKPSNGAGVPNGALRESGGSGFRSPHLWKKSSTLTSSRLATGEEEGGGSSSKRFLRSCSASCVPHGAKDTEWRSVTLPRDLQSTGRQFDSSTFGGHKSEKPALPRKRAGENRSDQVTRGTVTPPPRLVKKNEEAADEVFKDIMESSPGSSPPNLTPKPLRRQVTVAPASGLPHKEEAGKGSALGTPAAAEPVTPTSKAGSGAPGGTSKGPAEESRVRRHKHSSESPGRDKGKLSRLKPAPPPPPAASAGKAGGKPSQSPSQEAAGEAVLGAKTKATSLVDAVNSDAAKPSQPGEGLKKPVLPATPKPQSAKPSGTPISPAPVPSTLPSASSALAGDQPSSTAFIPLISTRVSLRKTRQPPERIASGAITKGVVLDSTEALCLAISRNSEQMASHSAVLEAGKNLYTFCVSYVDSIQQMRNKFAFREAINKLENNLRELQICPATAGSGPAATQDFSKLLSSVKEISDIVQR

various kinases [2] = biological target: various kinases (Homo sapiens, UniProt P00533, C797S/L858R/T790M); conditions: EGFR (ErbB1) T790M C797S L858R
various kinases [3] = biological target: various kinases (Homo sapiens, UniProt P00533, L861Q); conditions: EGFR (ErbB1) L861Q
various kinases [4] = biological target: various kinases (Homo sapiens, UniProt P05771); conditions: kinase PRKCB1 (PKC beta I); ZLYTE
various kinases (Homo sapiens, UniProt P05771), sequence (P05771 whole entry): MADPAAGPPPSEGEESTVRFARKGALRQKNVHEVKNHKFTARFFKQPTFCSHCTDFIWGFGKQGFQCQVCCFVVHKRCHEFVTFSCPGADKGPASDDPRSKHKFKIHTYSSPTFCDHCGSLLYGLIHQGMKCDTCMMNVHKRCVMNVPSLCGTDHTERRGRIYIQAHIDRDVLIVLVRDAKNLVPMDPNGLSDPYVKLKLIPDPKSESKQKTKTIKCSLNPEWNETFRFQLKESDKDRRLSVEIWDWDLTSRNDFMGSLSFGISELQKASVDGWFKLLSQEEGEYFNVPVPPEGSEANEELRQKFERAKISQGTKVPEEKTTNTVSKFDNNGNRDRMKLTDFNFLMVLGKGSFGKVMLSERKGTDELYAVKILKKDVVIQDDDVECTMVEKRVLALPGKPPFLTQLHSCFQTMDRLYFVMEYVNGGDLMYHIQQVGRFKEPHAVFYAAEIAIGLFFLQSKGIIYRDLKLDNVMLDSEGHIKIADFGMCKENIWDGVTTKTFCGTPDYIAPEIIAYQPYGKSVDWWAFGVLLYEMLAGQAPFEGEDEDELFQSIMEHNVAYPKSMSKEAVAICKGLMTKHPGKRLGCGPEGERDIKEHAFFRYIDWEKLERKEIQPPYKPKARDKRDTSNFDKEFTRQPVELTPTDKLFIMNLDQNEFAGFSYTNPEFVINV

various kinases [5] = biological target: various kinases (Homo sapiens, UniProt P07333); conditions: CSF1R (FMS)
various kinases [6] = biological target: various kinases (Homo sapiens, UniProt P07949, V804L); conditions: kinase RET V804L; ZLYTE
various kinases (Homo sapiens, UniProt P07949, V804L), sequence (P07949 29-1114 V804L): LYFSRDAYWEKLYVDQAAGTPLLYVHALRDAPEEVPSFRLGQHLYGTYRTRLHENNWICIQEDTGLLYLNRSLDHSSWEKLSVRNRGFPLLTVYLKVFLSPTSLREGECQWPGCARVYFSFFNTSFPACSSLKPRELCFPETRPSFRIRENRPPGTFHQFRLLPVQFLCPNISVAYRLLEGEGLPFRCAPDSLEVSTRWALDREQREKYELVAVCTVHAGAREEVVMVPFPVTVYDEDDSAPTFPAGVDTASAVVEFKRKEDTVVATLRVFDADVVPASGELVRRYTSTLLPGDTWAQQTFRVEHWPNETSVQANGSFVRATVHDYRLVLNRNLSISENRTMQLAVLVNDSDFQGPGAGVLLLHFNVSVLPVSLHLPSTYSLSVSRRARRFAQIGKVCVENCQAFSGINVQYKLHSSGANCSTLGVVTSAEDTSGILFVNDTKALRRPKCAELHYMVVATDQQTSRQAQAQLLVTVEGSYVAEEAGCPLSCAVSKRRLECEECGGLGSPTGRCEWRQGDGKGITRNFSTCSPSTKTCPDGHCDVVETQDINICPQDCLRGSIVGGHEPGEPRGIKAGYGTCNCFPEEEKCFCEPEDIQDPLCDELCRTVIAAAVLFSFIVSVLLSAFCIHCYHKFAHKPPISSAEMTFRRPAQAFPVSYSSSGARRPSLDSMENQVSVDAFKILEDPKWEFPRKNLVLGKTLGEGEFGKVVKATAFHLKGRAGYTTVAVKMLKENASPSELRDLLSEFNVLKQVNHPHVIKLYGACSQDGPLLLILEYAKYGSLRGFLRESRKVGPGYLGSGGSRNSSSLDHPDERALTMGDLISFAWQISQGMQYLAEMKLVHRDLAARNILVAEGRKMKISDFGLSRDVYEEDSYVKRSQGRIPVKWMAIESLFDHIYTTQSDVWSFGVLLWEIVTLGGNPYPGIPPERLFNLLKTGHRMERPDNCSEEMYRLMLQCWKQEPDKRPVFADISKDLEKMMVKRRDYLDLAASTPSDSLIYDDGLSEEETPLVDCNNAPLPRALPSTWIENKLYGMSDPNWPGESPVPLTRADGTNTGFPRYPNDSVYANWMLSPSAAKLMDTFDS

various kinases [7] = biological target: various kinases (Homo sapiens, UniProt P08581); conditions: MET (cMet)
various kinases [8] = biological target: various kinases (Homo sapiens, UniProt P09769); conditions: FGR
various kinases [9] = biological target: various kinases (Homo sapiens, UniProt P10721); conditions: KIT
various kinases [10] = biological target: various kinases (Homo sapiens, UniProt P15056); conditions: BRAF
various kinases [11] = biological target: various kinases (Homo sapiens, UniProt P23458); conditions: JAK1
various kinases [12] = biological target: various kinases (Homo sapiens, UniProt P32298); conditions: GRK4
various kinases [13] = biological target: various kinases (Homo sapiens, UniProt P35916); conditions: FLT4 (VEGFR3)
various kinases [14] = biological target: various kinases (Homo sapiens, UniProt P51451); conditions: BLK
various kinases [15] = biological target: various kinases (Homo sapiens, UniProt P53779); conditions: MAPK10 (JNK3)
various kinases [16] = biological target: various kinases (Homo sapiens, UniProt Q13131)
various kinases (Homo sapiens, UniProt Q13131), sequence (Q13131 whole entry): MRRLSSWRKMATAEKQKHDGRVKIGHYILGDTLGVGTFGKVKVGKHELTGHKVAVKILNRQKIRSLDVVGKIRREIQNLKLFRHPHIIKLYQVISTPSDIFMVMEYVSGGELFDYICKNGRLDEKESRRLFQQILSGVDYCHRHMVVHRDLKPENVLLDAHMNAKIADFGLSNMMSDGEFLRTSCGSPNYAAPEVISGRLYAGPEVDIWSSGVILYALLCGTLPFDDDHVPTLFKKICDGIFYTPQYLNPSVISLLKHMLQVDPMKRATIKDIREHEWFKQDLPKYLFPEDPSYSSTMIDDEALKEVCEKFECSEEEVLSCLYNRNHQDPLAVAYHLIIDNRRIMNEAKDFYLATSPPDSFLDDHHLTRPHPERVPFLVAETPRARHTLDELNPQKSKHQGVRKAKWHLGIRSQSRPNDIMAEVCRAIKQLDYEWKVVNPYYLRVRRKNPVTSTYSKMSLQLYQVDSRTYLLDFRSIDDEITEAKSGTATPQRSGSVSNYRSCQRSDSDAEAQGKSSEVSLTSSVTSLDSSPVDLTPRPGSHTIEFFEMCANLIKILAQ

various kinases [17] = biological target: various kinases (Homo sapiens, UniProt Q5VT25); conditions: CDC42 BPA (MRCKA)
various kinases [18] = biological target: various kinases (Homo sapiens, UniProt Q8IY84); conditions: NIM1K
various kinases [19] = biological target: various kinases (Homo sapiens, UniProt Q9H4B4); conditions: kinase PLK3; ZLYTE
various kinases (Homo sapiens, UniProt Q9H4B4), sequence (Q9H4B4 whole entry): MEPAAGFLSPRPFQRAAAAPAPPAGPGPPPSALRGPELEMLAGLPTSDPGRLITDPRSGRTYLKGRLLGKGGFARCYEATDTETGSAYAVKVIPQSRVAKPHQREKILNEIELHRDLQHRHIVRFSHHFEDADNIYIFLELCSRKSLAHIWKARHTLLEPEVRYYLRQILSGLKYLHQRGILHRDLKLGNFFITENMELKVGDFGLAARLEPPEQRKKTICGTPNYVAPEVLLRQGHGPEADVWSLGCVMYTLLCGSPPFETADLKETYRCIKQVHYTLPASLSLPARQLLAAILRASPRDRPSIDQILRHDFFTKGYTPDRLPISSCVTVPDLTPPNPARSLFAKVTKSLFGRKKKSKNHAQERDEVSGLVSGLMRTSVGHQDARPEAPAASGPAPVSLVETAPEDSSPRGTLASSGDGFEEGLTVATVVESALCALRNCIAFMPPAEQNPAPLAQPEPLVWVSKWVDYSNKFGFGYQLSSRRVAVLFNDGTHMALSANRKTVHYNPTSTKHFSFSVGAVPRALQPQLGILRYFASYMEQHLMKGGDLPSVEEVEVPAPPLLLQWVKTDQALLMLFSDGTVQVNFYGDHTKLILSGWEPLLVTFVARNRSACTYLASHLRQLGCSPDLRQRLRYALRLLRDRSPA

various kinases [20] = biological target: various kinases (Homo sapiens, UniProt Q9NWZ3); conditions: IRAK4
various kinases (Homo sapiens, UniProt Q9NWZ3), sequence (Q9NWZ3 whole entry): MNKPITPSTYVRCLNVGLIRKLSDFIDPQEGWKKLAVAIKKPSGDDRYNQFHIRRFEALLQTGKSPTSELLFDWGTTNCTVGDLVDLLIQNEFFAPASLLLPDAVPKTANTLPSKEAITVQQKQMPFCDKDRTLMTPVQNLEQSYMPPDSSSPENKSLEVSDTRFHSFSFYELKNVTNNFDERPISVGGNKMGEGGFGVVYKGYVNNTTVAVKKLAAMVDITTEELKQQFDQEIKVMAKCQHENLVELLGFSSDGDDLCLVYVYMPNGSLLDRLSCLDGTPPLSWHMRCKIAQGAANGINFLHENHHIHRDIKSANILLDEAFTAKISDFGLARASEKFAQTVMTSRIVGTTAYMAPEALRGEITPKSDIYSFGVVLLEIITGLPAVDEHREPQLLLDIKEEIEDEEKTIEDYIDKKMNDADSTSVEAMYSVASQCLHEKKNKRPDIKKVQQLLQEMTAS

various kinases [21] = biological target: T1, various kinases (Homo sapiens, UniProt Q9UL54); conditions: kinase TAOK2 (TAO1); ZLYTE
T1 sequence (Q9UL54 1-1235): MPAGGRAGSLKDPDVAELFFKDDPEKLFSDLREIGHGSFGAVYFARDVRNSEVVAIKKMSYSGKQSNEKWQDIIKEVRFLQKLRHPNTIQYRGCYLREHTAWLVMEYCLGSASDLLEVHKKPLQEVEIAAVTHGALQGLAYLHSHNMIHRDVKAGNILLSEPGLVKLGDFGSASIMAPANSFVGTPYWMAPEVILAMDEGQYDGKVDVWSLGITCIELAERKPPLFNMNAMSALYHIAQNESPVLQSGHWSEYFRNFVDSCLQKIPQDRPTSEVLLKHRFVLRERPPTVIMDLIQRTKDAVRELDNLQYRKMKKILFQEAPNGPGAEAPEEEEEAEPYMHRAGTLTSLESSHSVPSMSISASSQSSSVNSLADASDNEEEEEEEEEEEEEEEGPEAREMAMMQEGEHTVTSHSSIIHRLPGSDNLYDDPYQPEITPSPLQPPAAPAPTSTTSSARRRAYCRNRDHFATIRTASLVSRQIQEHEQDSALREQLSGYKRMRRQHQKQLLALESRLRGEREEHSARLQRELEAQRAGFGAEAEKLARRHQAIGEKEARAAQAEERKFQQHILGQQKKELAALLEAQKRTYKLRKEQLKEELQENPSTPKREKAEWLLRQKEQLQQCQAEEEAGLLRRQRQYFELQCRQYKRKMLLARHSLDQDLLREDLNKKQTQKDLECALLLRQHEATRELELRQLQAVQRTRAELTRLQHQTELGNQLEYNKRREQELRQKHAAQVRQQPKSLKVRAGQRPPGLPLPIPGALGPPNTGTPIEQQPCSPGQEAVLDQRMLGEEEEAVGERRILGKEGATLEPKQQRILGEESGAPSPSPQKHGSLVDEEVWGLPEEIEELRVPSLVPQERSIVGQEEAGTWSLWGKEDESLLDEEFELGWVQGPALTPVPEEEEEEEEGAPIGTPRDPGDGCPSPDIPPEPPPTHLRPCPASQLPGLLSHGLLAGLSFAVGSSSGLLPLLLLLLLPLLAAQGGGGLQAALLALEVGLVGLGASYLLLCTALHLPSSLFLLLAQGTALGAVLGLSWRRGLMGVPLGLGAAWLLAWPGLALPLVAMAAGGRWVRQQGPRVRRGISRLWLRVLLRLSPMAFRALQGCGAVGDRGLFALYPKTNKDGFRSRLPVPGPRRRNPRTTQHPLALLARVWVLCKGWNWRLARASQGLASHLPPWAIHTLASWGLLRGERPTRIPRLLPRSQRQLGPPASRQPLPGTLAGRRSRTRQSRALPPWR

various kinases [22] = biological target: various kinases (Homo sapiens, UniProt Q9Y243); conditions: AKT3 (PKB gamma)
various kinases (Homo sapiens, UniProt Q9Y243), sequence (Q9Y243 whole entry): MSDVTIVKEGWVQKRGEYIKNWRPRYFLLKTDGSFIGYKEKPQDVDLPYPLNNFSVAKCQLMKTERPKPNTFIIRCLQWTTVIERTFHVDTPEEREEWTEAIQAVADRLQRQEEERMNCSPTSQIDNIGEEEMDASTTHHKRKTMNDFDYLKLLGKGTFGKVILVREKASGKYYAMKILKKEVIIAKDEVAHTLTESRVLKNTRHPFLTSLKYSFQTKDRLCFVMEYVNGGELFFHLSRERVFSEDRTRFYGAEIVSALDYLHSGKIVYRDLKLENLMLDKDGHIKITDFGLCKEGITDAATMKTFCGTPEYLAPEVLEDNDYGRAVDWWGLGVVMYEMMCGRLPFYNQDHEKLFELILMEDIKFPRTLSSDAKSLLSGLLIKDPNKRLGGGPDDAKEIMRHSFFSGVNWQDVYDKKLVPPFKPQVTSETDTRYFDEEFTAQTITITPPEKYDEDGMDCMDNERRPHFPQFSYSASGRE

various kinases [23] = biological target: various kinases (Homo sapiens, UniProt Q9Y4K4); conditions: MAP4K5 (KHS1)

SMILES: COc1ccc2c(c1)[C@]1(C[C@H]1c1ccc3c(/C=C/c4ccc(CN5C[C@@H](C)O[C@@H](C)C5)cc4)n[nH]c3c1)C(=O)N2 [CFI-400945]
- % Inhibition (various kinases [1]): 4% and 5%
- % Inhibition (various kinases [2]): 8% and 5%
- % Inhibition (various kinases [3]): 3% and 0%
- % Inhibition Average (various kinases [4]): 17%
- % Inhibition Duplicate #1 (various kinases [4]): 18%
- % Inhibition Duplicate #2 (various kinases [4]): 16%
- % Inhibition (various kinases [5]): 14% and 15%
- % Inhibition Average (various kinases [6]): 17%
- % Inhibition Duplicate #1 (various kinases [6]): 14%
- % Inhibition Duplicate #2 (various kinases [6]): 19%
- % Inhibition (various kinases [7]): 16% and 14%
- % Inhibition (various kinases [8]): 28% and 26%
- % Inhibition (various kinases [9]): 9% and 7%
- % Inhibition (various kinases [10]): -1% and 2%
- % Inhibition (various kinases [11]): 1% and 0%
- % Inhibition (various kinases [12]): 1% and -1%
- % Inhibition (various kinases [13]): 6% and 8%
- % Inhibition (various kinases [14]): 9% and 14%
- % Inhibition (various kinases [15]): 5%
- % Inhibition (various kinases [16]; AMPK (A1/B2/G2)): 25% and 20%
- % Inhibition (various kinases [16]; AMPK (A1/B2/G3)): 13% and 21%
- % Inhibition (various kinases [16]; AMPK A1/B1/G1): 14% and 9%
- % Inhibition (various kinases [17]): 3% and 10%
- % Inhibition (various kinases [18]): 2% and 3%
- % Inhibition Average (various kinases [19]): -2%
- % Inhibition Duplicate #1 (various kinases [19]): -7%
- % Inhibition Duplicate #2 (various kinases [19]): 3%
- % Inhibition (various kinases [20]): 0% and -3%
- % Inhibition Average (various kinases [21]): 4%
- % Inhibition Duplicate #1 (various kinases [21]): 3%
- % Inhibition Duplicate #2 (various kinases [21]): 5%
- % Inhibition (various kinases [22]): 3% and 4%
- % Inhibition (various kinases [23]): 12% and 23%
